Drawing on patent US6239104A, “Isolation and structural elucidation of the cytostatic linear and cyclo-depsipeptides dolastatin 16, dolastatin 17, and dolastatin 18” (priority 1999, dated 2001), this text covers GI50, growth inhibition and ED50 for 2 molecules.

Format in all cases: cell-based
In one test the test system is SF-295. The test can be described thus: NCI human cancer cell line minipanel, brain SF-295.
Description: (§1) The administration of Dolastatin 16 is useful for treating neoplastic disease associated with malignant cell growth, and expectedly its synthetic counterpart, as well as, its pharmaceutically and physiologically active derivatives will be useful for treating neoplastic disease associated with malignant cell growth in animals and humans. For example, Dolastatin 16 was screened against a minipanel of the U.S. National Cancer Institute's human cancer cell lines utilizing protocols described by Michael R. Boyd and Kenneth D. Paul in Some Practical Considerations and Applications of the National Cancer Institute In Vitro Anticancer Drug Discovery Screen, 34 DRUG D[…] 91 (1995) (and references cited therein).
as §1, with “17” for “16”, “91 (1995) (and references cited therein).” left out

Test [1] concerns complete panel of sixty human cancer cell lines. The test can be described thus: NCI complete panel of sixty human cancer cell lines.
Description: as §1

For another test, the system named is NCI-H460. The test can be described thus: NCI human cancer cell line minipanel, lung NCI-H460.
Description: as §1
as §1, with “17” for “16”, “91 (1995) (and references cited therein).” left out

The subject of another test is KM 20L2. As to the kind of experiment: NCI human cancer cell line minipanel, colon KM 20L2.
Description: as §1
as §1, with “17” for “16”, “91 (1995) (and references cited therein).” left out

Test [2] concerns five human leukemia cell lines. As to the kind of experiment: NCI screen, five human leukemia cell lines. The conditions noted are these: in words.
Description: as §1

For another test, the system named is SK-MEL-5. As to the kind of experiment: NCI human cancer cell line minipanel, melanoma SK-MEL-5.
Description: as §1

The test system of test [3] is a selection of human cancer cell lines, including lung cancer. As to the kind of experiment: NCI minipanel, selection of human cancer cell lines. The conditions noted are these: in words.
Description: as §1, with “18” for “16”

Each structure is given as a SMILES string. Converted amounts (≈) assume the structure as drawn. Starred links: 1 amine or outer side, 2 acyl side, 3 side chain; linkers in the order of their positions; H or OH if unused. Non-standard residues stand in square brackets, D forms with d. Residues, ends and D or L forms follow the SMILES beside them. X1 = CC(Cc1ccccc1)C(N[*:1])C(=O)[*:2]; X2 = CC(C)C(N[*:1])C(C)C(=O)[*:2]; dNMeV = CN[C@@H](C(=O)O)C(C)C; dHiv = CC(C)[C@@H](O)C(=O)O; Lac = C[C@H](O)C(=O)O

In general, GI50 refers to the concentration giving 50% growth inhibition. Low values mean more potent growth inhibition, high ones less potent growth inhibition. Regarding `CC(C)C1NC(=O)[C@@H]2CCCN2C(=O)C(C(C)Cc2ccccc2)NC(=O)[C@@H]2CCCN2C(=O)[C@@H](C(C)C)N(C)C(=O)[C@@H](C(C)C)OC(=O)[C@@H]2CCCN2C(=O)[C@H](C)OC(=O)C1C` (some centres unmarked) [Dolastatin 16, cyclo-(Pro^1 --Dpv^2 --Pro^3 --Dml^4 --O--Lac^5 --Pro^6 --O--Hiv^7 --MeVal^8)] (cyclo([Lac]P[dHiv][dNMeV]P[X1]P[X2])), the GI50 with SF-295 was 5.2 ng/mL (≈ 5.92 nM); in test [1], 250 nM; with NCI-H460 (lung NCI-H460), 0.96 ng/mL (≈ 1.09 nM); with KM 20L2 it was 1.2 ng/mL (≈ 1.37 nM); in the test on SK-MEL-5, 3.3 ng/mL (≈ 3.75 nM). In addition, in test [2], the growth inhibition entry was “comparable inhibitory results”.
In the test with NCI-H460 (lung cancer NCI-H460), `CCCC(=O)C(C)(C)C(=O)N[C@@H](CC(C)C)C(=O)N(C)[C@H](Cc1ccccc1)C(=O)N[C@@H](Cc1ccccc1)c1nccs1` [Dolastatin 18, Dhex--Leu--MePhe--Doe] displayed an ED50 of 0.39 µg/mL (≈ 630 nM). Also, in test [3], the growth inhibition result is listed as “significantly inhibit growth”.
